Results: patent US20100240093A1, “Isolated Staphylococcus Pseudolugdunensis” (priority 2006, published 2010)

How the values were obtained:
Unknowns (n = 12) = test: Novobiocin and polymyxin B resistance, summary of isolates; type: cell-based, Staphylococcus pseudolugdunensis; details: for Summary: resistance percentage: Unknowns (n = 12)
Excerpt: (§1) Both clinical isolates and reference isolates were first identified by the conventional method based on colony size and pigment; anaerobic and aerobic growth; the presence of clumping factor, Staphaurex latex agglutination (Murex Diagnostics Inc., Norcross, Ga.), hemolysins, oxidase, ODC, urease, and PYR (De Paulis, A. N., et al (2003) J. Clin. Microbiol. 41: 1219-24, 16, 25, 33). Species identification further confirmed by using an API STAPH (bioMerieux Vitek, Inc., Hazelwood, Mo.) according to the manufacturer's instructions (Brun, Y., et al (1990) J. Clin. Microbiol. 8: 503-8; Chapin, K., and M. Musgnug (2003) J. Clin. Microbiol. 41: 4324-7; Gemmell, C. G., and J. E. Dawson (1982) J. Clin. Microbiol. 16:874-7; Heikens, E., et al (2005) J. Clin. Microbiol. 43: 2286-90; Layer, F., B. et al (2006) J. Clin. Microbiol. 44: 2824-30.). PYR and ODC were performed with S. aureus (ATCC#25923) and S. lugdunensis (ATCC#700328) included as negative and positive controls, respectively. Biochemical tests included acid production from D-glucose, D-trehalose, D-mannitol, D-mannose, xylose, maltose, lactose, sucrose, N-acetylglucosamine, raffinose, D-fructose, D-melibiose, xylitol, and α-methyl-glucosamine; nitrate reduction; and alkaline phosphatase, arginine dihydrolase, urease, and acetoin production. […] Biochemical reactions, including catalase, coagulase, D-glucose, D-mannitol, D-fructose, galactose, lactose, maltose, sucrose, D-trehalose, xylose, nitrate reduction, arginine dihydrolase, urease, and novobiocin and polymyxin B resistance, were further confirmed at the Tennessee Department of Health Laboratory Services in Nashville, Tenn., using phenotypic methods recommended by the United States Centers for Disease Control (CDC), Atlanta, Ga. (Kloose, W. E. and T. L. Bannerman (1995) Staphylococcus and Micrococcus, p. 282-298, in P. R. Murray et al. (eds.) Manual of Clinical Microbiology, 6th ed., American Society for Microbiology Press, Washington, D.C.; Kloose, W. E. and K. H. Schleifer (1975) J. Clin. Microbiol. 1: 82-88).

“S. pettenkoferi” = system: “S. pettenkoferi”; design: key: “R”, resistant; “S”, susceptible; “v”, variable; details: Trulzsch et al. (2002); cited from earlier work
S. lugdunensis = system: S. lugdunensis; design: key: “R”, resistant; “S”, susceptible; “v”, variable; details: cited from earlier work
S. auricularis = system: S. auricularis; design: key: “R”, resistant; “S”, susceptible; “v”, variable; details: cited from earlier work
S. epidermidis = system: S. epidermidis; design: key: “R”, resistant; “S”, susceptible; “v”, variable; details: cited from earlier work
isolate B287 = test: Novobiocin and polymyxin B resistance, phenotypic methods; type: cell-based, Staphylococcus pseudolugdunensis; design: key: “R”, resistant; “S”, susceptible; “v”, variable
Excerpt: as §1

isolate B277 = test: as above; type: cell-based, Staphylococcus pseudolugdunensis; design: key: “R”, resistant; “S”, susceptible; “v”, variable
Excerpt: as §1

isolate B334 = test: as above; type: cell-based, Staphylococcus pseudolugdunensis; design: key: “R”, resistant; “S”, susceptible; “v”, variable
Excerpt: as §1

isolate B837 = test: as above; type: cell-based, Staphylococcus pseudolugdunensis; design: key: “R”, resistant; “S”, susceptible; “v”, variable
Excerpt: as §1

isolate B292 = test: as above; type: cell-based, Staphylococcus pseudolugdunensis; design: key: “R”, resistant; “S”, susceptible; “v”, variable
Excerpt: as §1

isolate B006 = test: as above; type: cell-based, Staphylococcus pseudolugdunensis; design: key: “R”, resistant; “S”, susceptible; “v”, variable
Excerpt: as §1

isolate B715 = test: as above; type: cell-based, Staphylococcus pseudolugdunensis; design: key: “R”, resistant; “S”, susceptible; “v”, variable
Excerpt: as §1

isolate B230 = test: as above; type: cell-based, Staphylococcus pseudolugdunensis; design: key: “R”, resistant; “S”, susceptible; “v”, variable
Excerpt: as §1

isolate B354 = test: as above; type: cell-based, Staphylococcus pseudolugdunensis; design: key: “R”, resistant; “S”, susceptible; “v”, variable
Excerpt: as §1

isolate B060 = test: as above; type: cell-based, Staphylococcus pseudolugdunensis; design: key: “R”, resistant; “S”, susceptible; “v”, variable
Excerpt: as §1

isolate B739 = test: as above; type: cell-based, Staphylococcus pseudolugdunensis; design: key: “R”, resistant; “S”, susceptible; “v”, variable
Excerpt: as §1

Molecule	Summary: resistance percentage (Unknowns (n = 12))	Resistance/Susceptibility (“S. pettenkoferi”)	Resistance/Susceptibility (S. lugdunensis)	Resistance/Susceptibility (S. auricularis)	Resistance/Susceptibility (S. epidermidis)	Resistance/Susceptibility (isolate B287)	Resistance/Susceptibility (isolate B277)	Resistance/Susceptibility (isolate B334)	Resistance/Susceptibility (isolate B837)	Resistance/Susceptibility (isolate B292)	Relative resistance of S. pseudolugdunensis to polymyxin B and novobiocin (Unknowns (n = 12); Staphylococcus pseudolugdunensis bacteria)	Resistance/Susceptibility (isolate B006)	Resistance/Susceptibility (isolate B715)	Resistance/Susceptibility (isolate B230)	Resistance/Susceptibility (isolate B354)	Resistance/Susceptibility (isolate B060)	Resistance/Susceptibility (isolate B739)
CO[C@@H]1[C@@H](OC(N)=O)[C@@H](O)[C@H](Oc2ccc3c(O)c(NC(=O)c4ccc(O)c(CC=C(C)C)c4)c(=O)oc3c2C)OC1(C)C [Novobiocin]	42 percentage	S	S	S	S	R	R	R	R	R							
Polymyxin B	8 percentage		v	S	R	S		S	R	S	more resistant to polymyxin B than to novobiocin	S	S	S	S	S	S
